Molecular target: T1, Human AhR (Homo sapiens, UniProt P35869)
T1 construct: expressed in transfected cells
T1 sequence (P35869 11-848): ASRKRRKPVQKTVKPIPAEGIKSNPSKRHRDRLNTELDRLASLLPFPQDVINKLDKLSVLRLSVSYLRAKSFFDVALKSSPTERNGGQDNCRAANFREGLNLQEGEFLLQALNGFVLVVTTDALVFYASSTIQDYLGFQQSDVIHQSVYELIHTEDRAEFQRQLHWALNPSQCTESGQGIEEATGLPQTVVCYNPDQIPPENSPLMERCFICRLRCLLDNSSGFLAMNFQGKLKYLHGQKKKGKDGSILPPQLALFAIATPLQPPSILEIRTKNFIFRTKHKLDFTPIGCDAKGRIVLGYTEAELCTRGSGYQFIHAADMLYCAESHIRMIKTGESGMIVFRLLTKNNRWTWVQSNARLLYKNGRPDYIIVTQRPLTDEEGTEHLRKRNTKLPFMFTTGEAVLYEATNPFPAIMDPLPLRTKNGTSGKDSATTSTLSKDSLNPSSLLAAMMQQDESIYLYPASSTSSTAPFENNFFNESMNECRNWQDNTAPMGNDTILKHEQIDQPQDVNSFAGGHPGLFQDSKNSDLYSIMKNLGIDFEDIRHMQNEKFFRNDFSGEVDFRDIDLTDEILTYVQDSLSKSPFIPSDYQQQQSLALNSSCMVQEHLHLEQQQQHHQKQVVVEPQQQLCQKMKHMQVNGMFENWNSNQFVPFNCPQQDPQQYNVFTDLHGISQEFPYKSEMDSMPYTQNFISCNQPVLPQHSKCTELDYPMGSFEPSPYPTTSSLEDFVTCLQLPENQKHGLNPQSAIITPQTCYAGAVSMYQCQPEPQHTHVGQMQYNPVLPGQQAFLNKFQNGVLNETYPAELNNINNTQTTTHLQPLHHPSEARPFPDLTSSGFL
Experiment: hAHR Nuclear Translocation Assay
Type: cell-based
Conditions: AhR-EGFP nuclear translocation in Jump-In T-REx HEK293 cells, 45 minutes incubation; class symbols; read-out: Rel EC50
Text: The purpose of this assay is to measure the ability of compounds to bind to, activate, and induce the translocation of AhR into the nucleus of a cell for transcription. Stable cell lines were established using Jump-InTM T-RExTM HEK293 Retargeting Kit (Life Technologies). Human AhR cDNA was cloned into the pJTI R4 CMV-TO EGFP vector. The EGFP was cloned to the C-terminal of AHR to form AhR-EGFP chimera. The pJTI R4 CMV-TO AhR-EGFP vector was transfected using FuGENE® HD into Jump-InTM T-RExTM HEK293 cells. Transfected cells were selected using 2.5 mg/ml G418 for 10 to 14 days, then expanded, harvested, and suspended in freeze media (FBS with 8% DMSO) at 2×10^7 cells/ml, and aliquots were stored in liquid nitrogen. One day before the assay date, cells were thawed and resuspended in DMEM with 5% FBS in the presence of 1 μg/ml Doxycycline and plated into ploy-L-Lysine coated […]-384 ULTRA Microplates (Perkin Elmer) at 12,000 to 15,000 cells per well and incubated at 37° C. and 5% CO2 overnight. On the assay date, compound was serially diluted (1:2) into 384-well nunc plates with DMSO using acoustic dispensing (ECHO®). The dose response was a 20-point curve. […] The culture media was damped and 25 μl of DMEM plus 0.1% BSA was added, then 25 μL of compound in DMEM plus 0.1% BSA was added into cell plates. Cells were incubated compounds at 37° C. and 5% CO2 for 45 minutes. The final DMSO concentration was 0.2%. The media was damped after 45 minutes incubation. The cells were fixed with 40 μl of cold MeOH (-20° C.) for 20 minutes. The MeOH was damped and 50 μL of DPBS containing 1 μg/mL Hochst was added into the cell plates. The intensity of EGFP was quantitated by using Opera PHENIX® or OPERETTA® high content image system (Perkin Elmer) with 20× Water Objective and five field per well. The ratio of EGFP fluorescent intensity in nuclear over cytosol was analyzed using a 4-parameter nonlinear logistic equation to determine the potency of AhR agonists.

Structure (SMILES)	EC50 [nM]
CC1CCc2c1cc(C(=O)Nc1ncccc1F)c1nncn21 (single isomer, unassigned) [Example 37, N-(3-Fluoropyridin-2-yl)-6-methyl-7,8-dihydro-6H-cyclopenta[e][1,2,4] triazolo[4,3-a]pyridine-4-carboxamide]	1 to 10
CCCC1CCc2c1cc(C(=O)Nc1ncc(F)cn1)c1nncn21 (single isomer, unassigned) [Example 68, N-(5-Fluoropyrimidin-2-yl)-6-propyl-7,8-dihydro-6H-cyclopenta[e][1,2,4] triazolo[4,3-a]pyridine-4-carboxamide]	10 to 50
COc1cnc(NC(=O)c2cc3c(n4cnnc24)CCC3C)nc1 (single isomer, unassigned) [Example 48, N-(5-Methoxypyrimidin-2-yl)-6-methyl-7,8-dihydro-6H-cyclopenta[e][1,2,4] triazolo[4,3-a]pyridine-4-carboxamide]	10 to 50
CC1CCc2c1cc(C(=O)Nc1nccs1)c1nncn21 (single isomer, unassigned) [Example 25, 6-Methyl-N-(thiazol-2-yl)-7,8-dihydro-6H-cyclopenta[e][1,2,4] triazolo[4,3-a]pyridine-4-carboxamide]	1 to 10
CC(C)C1CCc2c1cc(C(=O)Nc1ncc(F)cn1)c1nncn21 (single isomer, unassigned) [Example 58, N-(5-Fluoropyrimidin-2-yl)-6-isopropyl-7,8-dihydro-6H-cyclopenta[e][1,2,4] triazolo[4,3-a]pyridine-4-carboxamide]	1 to 10
CC1CCc2c1cc(C(=O)Nc1ccc(F)cn1)c1nncn21 (single isomer, unassigned) [Example 42, N-(5-Fluoropyridin-2-yl)-6-methyl-7,8-dihydro-6H-cyclopenta[e][1,2,4] triazolo[4,3-a]pyridine-4-carboxamide]	1 to 10
CCC1CCc2c1cc(C(=O)Nc1ncc(F)cn1)c1nncn21 (single isomer, unassigned) [Example 57, 6-Ethyl-N-(5-fluoropyrimidin-2-yl)-7,8-dihydro-6H-cyclopenta[e][1,2,4] triazolo[4,3-a]pyridine-4-carboxamide]	1 to 10
CC1CCc2c1cc(C(=O)Nc1ccc(C(F)(F)F)cn1)c1nncn21 (single isomer, unassigned) [Example 35, 6-Methyl-N-(5-(trifluoromethyl)pyridin-2-yl)-7,8-dihydro-6H-cyclopenta[e][1,2,4] triazolo[4,3-a]pyridine-4-carboxamide]	1 to 10
CC1CCc2c1cc(C(=O)Nc1ncc(C(F)(F)F)cn1)c1nncn21 (single isomer, unassigned) [Example 27, 6-Methyl-N-(5-(trifluoromethyl)pyrimidin-2-yl)-7,8-dihydro-6H-cyclopenta[e][1,2,4] triazolo[4,3-a]pyridine-4-carboxamide]	1 to 10
CC(C)C1CCc2c1cc(C(=O)Nc1ncc(F)cn1)c1nncn21 (single isomer, unassigned) [Example 59, N-(5-Fluoropyrimidin-2-yl)-6-isopropyl-7,8-dihydro-6H-cyclopenta[e][1,2,4] triazolo[4,3-a]pyridine-4-carboxamide]	10 to 50
Cc1nnc2c(C(=O)Nc3ncc(F)cn3)cc3c(n12)CCC3C (single isomer, unassigned) [Example 53, N-(5-Fluoropyrimidin-2-yl)-1,6-dimethyl-7,8-dihydro-6H-cyclopenta[e][1,2,4] triazolo[4,3-a]pyridine-4-carboxamide]	> 50

Same assay, conditions: AhR-EGFP nuclear translocation in Jump-In T-REx HEK293 cells, 45 minutes incubation; numeric values; read-out: Rel EC50

Structure (SMILES)	EC50 [nM]
C[C@H]1CCc2c1cc(C(=O)Nc1ncc(F)cn1)c1nccn21 (single isomer, unassigned) [Example 14, N-(5-Fluoropyrimidin-2-yl)-6-methyl-7,8-dihydro-6H-cyclopenta[e]imidazo[1,2-a]pyridine-4-carboxamide]	1.66
C[C@H]1CCc2c1cc(C(=O)Nc1ncccn1)c1nccn21 (single isomer, unassigned) [Example 12, 6-Methyl-N-(pyrimidin-2-yl)-7,8-dihydro-6H-cyclopenta[e]imidazo[1,2-a]pyridine-4-carboxamide]	9.8

Reference: patent publication US20240199608A1 (Eli Lilly and Company, priority 2022, published 2024)
